Reference: US20150038674A1, “USE OF GLP-2 ANALOGUES IN PULMONARY DISEASES FOR THERAPEUTIC PURPOSE” (priority 2013, published 2015)
Marks after values point to notes of the source that are not given here. Starred links: 1 amine or outer side, 2 acyl side, 3 side chain; linkers in the order of their positions; H or OH if unused. Positions of bridges follow the written chain, without caps; N, C: chain ends. Non-standard residues stand in square brackets, D forms with d. Residues, ends and D or L forms follow the SMILES beside them. Chains are numbered I, II in the order given. Actinocin(9to1) = Cc1c2oc3c(C)ccc(C(=O)[*:1])c3nc-2c(C(=O)[*:2])c(N)c1=O; NMeV = CN[C@H](C(=O)O)C(C)C; Sar = CNCC(=O)O

Columns and labels:
[1] = tested on: GSH (glutathione); test: GSH level in lung homogenate (Beutler method); format: in vivo, mouse; settings: lung tissue, male BALB/c mice, Mean ± SD, same dosing groups
[2] = tested on: xanthine oxidase (XO); test: Xanthine oxidase activity in lung tissue; format: in vivo, mouse; settings: male BALB/c mice, Mean ± SD, same dosing groups
[3] = tested on: lipid peroxidation (LPO); test: Lipid peroxidation (LPO) level in lung homogenate; format: in vivo, mouse; settings: lung tissue, male BALB/c mice, Mean ± SD, same dosing groups
[4] = tested on: superoxide dismutase (SOD); test: Superoxide dismutase activity in lung tissue; format: in vivo, mouse; settings: male BALB/c mice, Mean ± SD, same dosing groups
[5] = tested on: active caspase-3; test: Active caspase-3 immunoreactivity (labeling index) in alveolar area; format: in vivo, mouse; settings: male BALB/c mice, active caspase-3 immunoreactive cells, teduglutide 200 μg/kg s.c. every 12 hours for 10 days, TNF-alpha 15 μg/kg i.p., Act D 800 μg/kg i.p.
Protocol: (§1) In this study, 8-10 months male BALB/c mice were used. Mice were divided into 6 groups: • Group I (Control group): Mice injected with 0.1% dimethylsulfoxide (DMSO) and phosphate buffered saline (PBS, pH 7.4) via intraperitoneal way. • Group II: Mice injected with 15 μg/kg TNF-alpha (dissolved in PBS) with single dose via intraperitoneal way. • Group III: Mice injected with 800 μg/kg Act D (dissolved in DMSO) with single dose via intraperitoneal way. • Group IV: The mice given with TNF-alpha 2 minutes after Act D is administered in doses and mode of administrations above. • Group V: The mice given with 200 μg/kg teduglutide (dissolved in PBS) for 10 days uninterruptedly in every 12 hours via subcutaneous injection. • Group VI: TNF-alpha was injected to mice to which teduglutide was administered for 10 days as mentioned above, 2 minutes after Act D was administered in 11th day in above doses and mode of administration.
(§2) The mice in Group V were cut with cervical dislocation 16.5 hours after the last administration, and the mice in other groups were cut 4.5 hours after the last administration, and the lung samples were taken for microscopic and biochemical analysis.
For the identification of apoptosis in the tissue, as another way, active caspase-3 immunoreactivity was tested. For this purpose, streptavidin-biotin-peroxidase immune method was used. Sections of left lung fixed with neutral formalin were treated with 0.3% triton X-100 for 10 minutes after dewaxing and rehydratation. Following this process, they heated in 10 mM citrate buffer (pH 6.0) for 15 min in a microwave oven. The sections were incubated for 10 minutes with 3% H2O2 for blocking of endogenous peroxidase activity. The next steps were performed according to the instructions in Histostain Plus Broad Spectrum Kit (Invitrogen). The sections were incubated with polyclonal rabbit active caspase 3 antibody (1:50 in PBS, Millipore) for 1 hour at room temperature.
Immunoreaction was developed with 3-amino-9-ethylcarbazole. The sections were stained with Mayer's hematoxilin following immunostaining. PBS or nonspecific rabbit IgG primary antibody were used as negative controls.
Quantitative analysis of immunoreactive cells labeled with caspase-3 antibody was made with light microscope at ×400 magnification. For the immunoreactive cell count, 5 randomly selected fields of alveolar areas without bronchioles were examined in the lung sections of each mouse. The labeling index for caspase-3 was calculated as a percentage of immunoreactive cells in the total number of cells counted per section.

[6] = tested on: tissue factor (TF); test: Tissue factor activity in lung tissue (Quick's one-stage method); format: in vivo, mouse; settings: male BALB/c mice, Mean ± SD, Quick's one-stage method using normal plasma, same dosing groups
[7] = tested on: glutathione peroxidase (GPx); test: Glutathione peroxidase activity in lung tissue; format: in vivo, mouse; settings: male BALB/c mice, Mean ± SD, same dosing groups
[8] = tested on: myeloperoxidase (MPO); test: Myeloperoxidase activity in lung tissue; format: in vivo, mouse; settings: male BALB/c mice, Mean ± SD, same dosing groups
[9] = tested on: catalase (CAT); test: Catalase activity in lung tissue; format: in vivo, mouse; settings: male BALB/c mice, Mean ± SD, same dosing groups
[10] = tested on: Na^+K^+ATPase; test: Na+K+ATPase activity in lung tissue; format: in vivo, mouse; settings: male BALB/c mice, Mean ± SD, same dosing groups
[11] = tested on: apoptotic cells in the lung (alveolar areas); test: TUNEL apoptotic index in alveolar area of lung; format: in vivo, mouse; settings: male BALB/c mice, teduglutide 200 μg/kg s.c. every 12 hours for 10 days, TNF-alpha 15 μg/kg i.p., Act D 800 μg/kg i.p.
Protocol: as §1, §2
TUNEL (Terminal deoxynucleotidyl transferase-mediated dUTP-nick end labeling assay) method was used to identify apoptotic cells in the lung. In this method, left lung sections fixed with 10% neutral formalin for 24 hours were used. Lung sections in thickness of 5 μm were treated with proteinase K (20 ug/ml) following rehydratation, and then endogenous peroxidase activity was blocked with 3% H2O2.
Marking step was carried out with commercially available ApopTag Plus Peroxidase kit (Millipore). The reaction in apoptotic cells was developed with […]. Following this process, cell nuclei were made visible in staining with methylene green. Mice breast tissue was used as positive control. […] TUNEL positive cells in the lung were analyzed under light microscope at 400× magnification. The apoptotic index value was calculated as a percentage of apoptotic cells in total number of cells.

[12] = tested on: type II pneumocytes; test: Type II pneumocyte count (Pro-SPC immunostaining) in alveolar epithelium; format: in vivo, mouse; settings: male BALB/c mice, Pro-SPC immunoreactive cells in total number of cells, same dosing groups
Protocol: (§3) In this study, 8-10 months male BALB/c mice were used. […]
Strep-ABC immunostaining method was used in order to determine proliferative cells in the alveolar area. […] Furthermore, since it is known that type II pneumocytes give new ones to replace type I and type II pneumocytes which die or lose function in the damaged alveolar epithelium, the number of type II pneumocytes in the alveolar area were analyzed in the experimental groups. […] Proliferation index and number of type II pneumocytes in the alveolar area were calculated as ratio of immunoreactive cells in total number of cells, and the value was expressed as %. […]

[13] = tested on: patients with short bowel syndrome; settings: s.c. 0.05 or 0.10 mg/kg/day; cited from earlier work
[14] = tested on: alveolar wall of mice lung; test: Hematoxylin-eosin histology of lung sections (alveolar wall damage); format: in vivo, mouse; settings: HE-stained lung sections, male BALB/c mice; same dosing groups
Protocol: TNF-alpha and/or Act D was administered to mice in the experiments. Act D is used in order to increase the cytotoxic effect of TNF-alpha in lung tissues. In this way, pulmonary epithelial, endothelial and mesenchymal cells were damaged in mouse lung by stimulating apoptosis, inflammation and oxidative stress. TNF-alpha. Act D and especially the combination of TNF-alpha/Act D cause the damage in alveolar wall of mice lung; it reduces the tissue factor (TF) and sodium-potassium ATPase (Na-K-ATPase) activities while stimulating apoptosis in pulmonary endotheliaL % epithelial cells, myeloperoxidase (MPO) activity in tissue and oxidative stress.
as §3

[15] = tested on: patients having intestinal damage with short bowel syndrome; settings: cited from earlier work
[16] = tested on: patients with short bowel syndrome; settings: 11 patients with short bowel syndrome, s.c. 0.4 mg 3 times a day, 13, 26, 52 weeks; cited from earlier work
[17] = humans, short bowel syndrome, teduglutide s.c. 0.05 or 0.10 mg/kg/day, 52 weeks

Compound | GSH [1] | LPO [3] | SOD [4] | caspase-3 index in alveolar areas in mice [5] [%] | TF [6] | GPx [7] | CAT [9] | Na^+K^+ATPase [10] | apoptotic index in alveolar areas in mice [11] | also measured
TNF-α | 10.16 ± 2.66^a nmol GSH/mg protein | 4.51 ± 0.50^b nmol MDA/mg protein | 6.99 ± 2.57^f U/mg protein | 0.08±0.005 | 49.08 ± 10.40^d sec | 453.86 ± 52.35^c U/g protein | 42.44 ± 5.79^a U/mg protein | 3.96 ± 0.71^a nmol Pi/mg protein/h | 0.41±0.04% | GSH ([1]; listed as TNF-alpha): increased significantly; XO [2]: 21.53 ± 3.28^a U/mg protein; XO ([2]; listed as TNF-alpha): increased significantly; LPO ([3]; listed as TNF-alpha): increased significantly; MPO ([8]; listed as TKF-α): 193.80 ± 31.28^c mU/g tissue; MPO ([8]; listed as TNF-alpha): increased significantly; apoptotic index in alveolar areas in mice ([11]; listed as TNF-alpha): no significant change in apoptotic index
CC[C@H](C)[C@H](NC(=O)[C@H](Cc1ccccc1)NC(=O)[C@H](CC(=O)O)NC(=O)[C@H](CCCNC(=N)N)NC(=O)[C@H](C)NC(=O)[C@H](C)NC(=O)[C@H](CC(C)C)NC(=O)[C@H](CC(N)=O)NC(=O)[C@H](CC(=O)O)NC(=O)[C@H](CC(C)C)NC(=O)[C@@H](NC(=O)[C@@H](NC(=O)[C@H](CC(N)=O)NC(=O)[C@H](CCSC)NC(=O)[C@H](CCC(=O)O)NC(=O)[C@H](CC(=O)O)NC(=O)[C@H](CO)NC(=O)[C@H](Cc1ccccc1)NC(=O)[C@H](CO)NC(=O)CNC(=O)[C@H](CC(=O)O)NC(=O)CNC(=O)[C@@H](N)Cc1c[nH]cn1)[C@@H](C)O)[C@@H](C)CC)C(=O)N[C@@H](CC(N)=O)C(=O)N[C@@H](Cc1c[nH]c2ccccc12)C(=O)N[C@@H](CC(C)C)C(=O)N[C@H](C(=O)N[C@@H](CCC(N)=O)C(=O)N[C@H](C(=O)N[C@@H](CCCCN)C(=O)N[C@H](C(=O)N[C@H](C(=O)N[C@@H](CC(=O)O)C(=O)O)[C@@H](C)O)[C@@H](C)CC)[C@@H](C)O)[C@@H](C)CC [Teduglutide] | 43.67 ± 8.25^c nmol GSH/mg protein | 5.31 ± 1.71^b nmol MDA/mg protein | 7.36 ± 1.28^c U/mg protein | 0.00±0.00 | increases the TF activity | 491.56 ± 171.49^b U/g protein | 44.74 ± 7.52^d U/mg protein | 6.46 ± 1.13^a nmol Pi/mg protein/h | no significant change in apoptotic index | GSH ([1]; listed as teduglutide): increased significantly; XO ([2]; listed as Tedoglutide): 17.46 ± 3.16^a U/mg protein; type II pneumocytes in alveolar epithelium of mouse lung [12]: 16.65±1.13%; type II pneumocytes in alveolar epithelium of mouse lung ([12]; listed as teduglutide): significant decrease in type II pneumocyte number; caspase-3 index in alveolar areas in mice ([5]; listed as teduglutide): decreased significantly in individuals previously treated with teduglutide to which TNF-alpha/Act D was administered; TF ([6]; listed as Tedoglutide): 47.28 ± 9.91^d sec; liver function tests (AST, ALT, ALP) and renal function tests (creatinine, urea, bilirubin, glomerular filtration speed) [13]: improvement in liver function tests; structure of alveolar wall / alveolar epithelium under light microscope [14]: alveoli were in better condition; MPO [8]: 88.93 ± 30.32^g mU/g tissue; reliability of long term use ([15]; 52 patients, s.c. 0.05 or 0.10 mg/kg/day for 52 weeks): reliable for long term use in humans; adverse effect: abdominal pain [15, 17]: 25%; adverse effect: headache [15, 17]: 35%; adverse effect: nausea [15, 17]: 31%
human GLP-2: Human glucagon like peptide 2, 33 amino acid sequence (SEQUENCE ID No. 1) (HADGSFSDEMNTILDNLAARDFINWLIQTKIT; listed as Homo sapiens) | – | – | – | – | – | – | – | – | – | intestinal morphology, absorption, renal functions, bone mineral density and muscle functions [16]: does not change
Cc1c2oc3c(C)ccc(C(=O)N[C@@H]4C(=O)N[C@H](C(C)C)C(=O)N5CCC[C@H]5C(=O)N(C)CC(=O)N(C)[C@@H](C(C)C)C(=O)O[C@@H]4C)c3nc-2c(C(=O)N[C@@H]2C(=O)N[C@H](C(C)C)C(=O)N3CCC[C@H]3C(=O)N(C)CC(=O)N(C)[C@@H](C(C)C)C(=O)O[C@@H]2C)c(N)c1=O [Act D, Actinomycin D] (I: T[dV]P[Sar][NMeV] / II: T[dV]P[Sar][NMeV]; ester I:1-I:C, II:1-II:C; linker I:N-II:N via Actinocin(9to1)) | – | – | 8.21 ± 2.29^g U/mg protein | 0.02±0.005 | 50.50 ± 8.06^d sec | 473.28 ± 78.26^c U/g protein | 29.76 ± 4.34^b U/mg protein | 3.63 ± 1.13^a nmol Pi/mg protein/h | – | –
